In paper PMC8037809, “Biomimetic Chromatographic Studies Combined with the Computational Approach to Investigate the Ability of Triterpenoid Saponins of Plant Origin to Cross the Blood–Brain Barrier” (International Journal of Molecular Sciences, 2021):
Read-outs that look alike come from different tables or passages of the source.

Tests used:
[1] = design: method as in earlier work; settings: experimentally obtained; QSAR training and test sets; cited from earlier work
[2] = tested on: memory deficits and anxiety induced by Aβ25-35; settings: rats, Aβ25-35 into the lateral ventricles; cited from earlier work
[3] = biomimetic chromatography (BMC, IAM, CHOL) with the QSAR equation, compared with computational logBB; settings: for ability to cross the BBB (conclusion): from biomimetic and computational studies
Excerpt: To calculate the logBB values for the tested saponins, the QSAR model previously obtained was used. In this QSAR predictive model the BBB penetration potential was correlated with the lipophilic properties (logPow), excess molar refraction (E), the difference between the logarithms of n-octanol/water and cyclohexane/water partition coefficients values (ΔlogP) being the hydrogen-bonding potential:logBB = −0.114 − 0.098 ΔlogP + 0.278 logPow + 0.218E(2)
Chromatographic biomimetic methods, including IAM, BMC, and CHOL, were used to determine BBB permeability of the tested triterpenoid saponins. For this purpose, the values of logkw, being the logarithm of retention factor extrapolated to pure water, were determined. These values were compared with the logBB values calculated in silico and those obtained using the QSAR model (Equation (2)). Logkw is recognized to be an alternative to the logPow lipophilicity descriptor [96]. On the other hand, lipophilicity is one of the most important features influencing the ability of substances to cross biological barriers.
Moreover, for the micellar biomimetic studies (BMC), Foley’s equation [97] (Equation (3)) was used to calculate important physicochemical parameters, i.e., the analyte–micelle association constant (KMA) and the partition coefficient of the analyte between the stationary phase and water (Psw). These parameters can describe possible interactions in the micellar system since the Brij35 micelle can be treated as a simple model of a biological barrier. (3) 1/k= KMA/PSWΦCM+ 1/PSWΦ where k is the retention factor, CM is the concentration of micelles, KMA is the analyte–micelle association constant, PSW is the partition coefficient of the analyte between the stationary phase and water, and Φ is the volume ratio of the stationary phase to the mobile phase volume.
As mentioned above the logkw parameter, obtained from the biomimetic chromatographic systems, is recognized to be an alternative to the logarithm of the n-octanol/water partition coefficient (logPow) lipophilicity descriptor. Therefore, logkw-BMC, logkw-IAM, and logkw-CHOL values were used for the calculation of logBB based on the QSAR equation (Equation (2)), instead of the logPow parameter. The values of logBB-BMC, logBB-IAM, and logBB-CHOL were thus calculated. In Figure 2 the above-mentioned logBB values and logBB in silico calculated using the ACD/Percepta software, as well as those of logKMA that can be treated as an equivalent to the logBB parameter, are presented.
The solutions of analytical standards of the studied triterpenoid saponins were prepared in methanol (Merck, Darmstadt, Germany; p.a.) at a concentration of 1 mg/mL. […] In the research each system was optimized previously. In the IAM and CHOL studies, acetonitrile-phosphate buffer solutions (0.3; 0.4; 0.5; 0.6 v/v; pH 7.4) were used as mobile phases. In the case of BMC analysis, the buffered solution of Brij35 (0.075; 0.1; 0.125; 0.15 mol/dm^3; pH 7.4) was used as the mobile phase with the addition of isopropanol as an organic modifier (7% v/v). The buffer was prepared from the solutions of Na2HPO4 and citric acid (0.01 mol/dm^3) and the pH 7.4 value was fixed before the preparation of the mobile phases.
The following stationary phases were employed: IAM.PC.DD2 100 × 4.6 mm i.d., 10 µm (Regis Chemicals Company, Morton Grove, IL, USA); Cosmosil Cholester, 75 × 2 mm i.d., 2.5 µm (Genore, Warsaw, Poland); Purosphere RP-18e (ODS), 125 × 4 mm i.d., 5 µm (Merck, Darmstadt, Germany). The flow rates were established as follows: 1.3 mL/min (IAM), 0.4 mL/min (CHOL), and 1 mL/min (BMC). The tested saponins were detected with UV light at 254 nm. All measurements were made at 25 °C. The dead time values were measured from the non-retained compound (citric acid) peaks. All reported logkw values are the average of at least three independent measurements.

[4] = design: method as in doi:10.1556/1326.2017.00147; settings: rat, intragastric administration of the extract, postmortem; cited from earlier work
[5] = tested on: ethanol-induced memory impairment; design: method as in PMID 18521966; settings: mice; cited from earlier work
[6] = tested on: hippocampal CA1 region pyramidal neurons; design: method as in PMID 19433075; settings: ischemia/reperfusion; cited from earlier work

SMILES | logBB [1] | other results
CN1CC[C@]23c4c5ccc(O)c4O[C@H]2[C@@H](O)C=C[C@H]3[C@H]1C5.Cl [52-26-6] | –0.16 | 
C=CCC1(C(C)CCC)C(=O)NC(=O)NC1=O (stereo not shown) [76-73-3] | 0.2 | 
CNC(C)CC1CCCCC1 (stereo not shown) [101-40-6] | 1.08 | 
CN1C(=O)CN=C(c2ccccc2)c2cc(Cl)ccc21 [439-14-5] | 0.56 | 
Cc1cc(Cl)ccc1NC1=NCCN1 [4201-26-7] | 0.14 | 
Clc1ccc(NC2=NCCN2)c(Cl)c1 [23830-88-8] | 0.16 | 
CC(C)NCC(O)COc1ccc(CC(N)=O)cc1 (stereo not shown) [29122-68-7] | –1 | 
Cc1ccccc1NC1=NCCN1 [36318-56-6] | 0.04 | 
Brc1cc(Br)c(NC2=NCCN2)c(Br)c1 [38941-33-2] | 0.58 | 
CN(C)C(=O)C(CCN1CCC(O)(c2ccc(Cl)cc2)CC1)(c1ccccc1)c1ccccc1 [53179-11-6] | 0.77 | 
CC(C)NCC(O)COc1ccc(CCOCC2CC2)cc1 (stereo not shown) [63659-18-7] | 0.39 | 
COc1ccc2nc([S+]([O-])Cc3ncc(C)c(OC)c3C)[nH]c2c1 (stereo not shown) [73590-58-6] | –0.82 | 
Cc1ccc(Cc2cnc(NCCSCc3ccc(CN(C)C)o3)[nH]c2=O)cn1 [83903-06-4] | –1.06 | 
O=C(CCC1CCN(Cc2ccccc2)CC1)c1ccc2c(c1)NCCCC2 [142852-50-4] | 1.14 | 
Cc1c(O)cccc1C(=O)N[C@@H](CSc1ccccc1)[C@H](O)CN1C[C@H]2CCCC[C@H]2C[C@H]1C(=O)NC(C)(C)C [159989-64-7] | –0.93 | 
CC1(C)CCC2(C(=O)OC3OC(COC4OC(CO)C(O)C(O)C4O)C(O)C(O)C3O)CCC3(C)C(=CCC4C5(C)CCC(OC6OCC(O)C(O)C6O)C(C)(CO)C5CCC43C)C2C1 (stereo not shown) [Akebia saponin D] |  | effect on memory deficits and anxiety symptoms [2]: could significantly ameliorate the memory deficits and anxiety symptoms; ability to cross the BBB (conclusion) [3]: can penetrate the BBB
CC1(C)CC[C@]2(C(=O)O)CC[C@]3(C)C(=CC[C@@H]4[C@@]5(C)C[C@@H](O)[C@H](O)C(C)(C)[C@@H]5CC[C@]43C)[C@@H]2[C@@H]1O [Arjunic acid] |  | presence in brain tissues [4]: present in rat brain tissues; ability to cross the BBB (conclusion) [3]: can penetrate the BBB
CC(C)=C[C@H]1C[C@](C)(O)[C@@H]2[C@H]3CC[C@@H]4[C@@]5(C)CC[C@H](O[C@@H]6O[C@H](CO)[C@@H](O)[C@H](O[C@@H]7O[C@H](CO)[C@@H](O)[C@H](O)[C@H]7O)[C@H]6O[C@@H]6O[C@@H](CO)[C@H](O)[C@H]6O)C(C)(C)[C@@H]5CC[C@@]4(C)[C@@]34CO[C@@]2(C4)O1 [Bacoside A] |  | ability to cross the BBB (conclusion) [3]: can penetrate the BBB
C[C@@H]1O[C@@H](O[C@H]2[C@H](OC(=O)[C@]34CCC(C)(C)C[C@H]3C3=CC[C@@H]5[C@@]6(C)C[C@H](O)[C@H](O[C@@H]7O[C@H](CO)[C@@H](O)[C@H](O)[C@H]7O)C(CO)(CO)[C@@H]6CC[C@@]5(C)[C@]3(C)C[C@H]4O)OC[C@H](O)[C@@H]2O)[C@H](O)[C@H](O)[C@H]1O[C@@H]1OC[C@@H](O)[C@H](O[C@@H]2OC[C@](O)(CO)[C@H]2O)[C@H]1O [Platycodin D] |  | effect on ethanol-induced memory impairment [5]: could improve ethanol-induced memory impairment; protection from ischemic damage [6]: protects the hippocampal CA1 region pyramidal neurons from an ischemic damage; average logBB ([3]; average of all obtained logBB values (biomimetic and computational)): −1.681; ability to cross the BBB (conclusion) [3]: does not cross this barrier; logBB ([3]; span of the obtained values over the methods): −2 to −1.29
